# Data published in patent US20130116263A1, “PAK INHIBITORS FOR THE TREATMENT OF CELL PROLIFERATIVE DISORDERS” (AFRAXIS, INC., priority 2011, published 2013).
# Like-named read-outs stand apart in the source and are kept apart here.
# Columns and labels:
# Format in all cases: biochemical
# PAK1 = PAK1 (Homo sapiens, UniProt Q13153); assay: In vitro PAK inhibition assay (Z'-LYTE, SelectScreen), PAK1; settings: read-out: PAK1 IC50
# Experimental: (§1) Compounds are screened in 1% DMSO (final) in the well. For 10 point titrations, 3-fold serial dilutions are conducted. All Peptide/Kinase Mixtures are diluted to a 2× working concentration in the appropriate Kinase Buffer
# The 2×PAK1/Ser/Thr 19 mixture is prepared in 50 mM HEPES pH 7.5, 0.01% BRIJ-35, 10 mM MgCl2, 1 mM EGTA.
# (§2) 1. Add the following solutions to a well in a 384-well plate: • 2.5 μL of 4× Test Compound OR (100 nL 100× Test Compound plus 2.4 μL kinase buffer) • 5 μL of 2× Peptide/Kinase (PAK) Mixture • 2.5 μL of 4×ATP Solution
# (§3) 3. Incubate the PAK Kinase Reaction at room temperature for 60-minutes
# (§4) 4. Add 5 μL of Development Reagent Solution to each well
# (§5) 6. Incubate the Development Reaction for 60-minutes
# (§6) 7. Determine the fluorescence using a fluorescence plate reader
# (§7) SelectScreen® Kinase Profiling Service uses XLfit from IDBS.
# (§8) The representative IC50 value with a known inhibitor for each kinase was determined at the ATP bin nearest to the ATP Km app.
# PAK2 (PAK65) = PAK2 (PAK65) (Homo sapiens, UniProt Q13177); assay: In vitro PAK inhibition assay (Z'-LYTE, SelectScreen), PAK2; settings: read-out: PAK2 IC50
# Experimental: as §1
# The 2×PAK2 (PAK65)/Ser/Thr 20 mixture is prepared in 50 mM HEPES pH 7.5, 0.01% BRIJ-35, 10 mM MgCl2, 1 mM EGTA. The final 10 μL Kinase Reaction consists of 0.29-6 ng PAK2 (PAK65) and 2 μM Ser/Thr 20 in 50 mM HEPES pH 7.5, 0.01% BRIJ-35, 10 mM MgCl2, 1 mM EGTA.
# as §2, §3, §4, §5, §6, §7, §8
# PAK4 = PAK4 (Homo sapiens, UniProt O96013); assay: In vitro PAK inhibition assay (Z'-LYTE, SelectScreen), PAK4
# Experimental: as §1
# The 2×PAK-4/Ser/Thr 20 mixture is prepared in 50 mM HEPES pH 7.5, 0.01% BRIJ-35, 10 mM MgCl2, 1 mM EGTA. The final 10 μL Kinase Reaction consists of 0.1-0.75 ng PAK-4 and 2 μM Ser/Thr 20 in 50 mM HEPES pH 7.5, 0.01% BRIJ-35, 10 mM MgCl2, 1 mM EGTA. After the 1 hour Kinase Reaction incubation, 5 μL of a 1:256 dilution of Development Reagent A is added.
# as §2, §3, §4, §5, §6
# SelectScreen® Kinase Profiling Service uses XLfit from IDBS. The dose response curve is curve fit to model number 205 (sigmoidal dose-response model).
# The table below provides specifications and data around each kinase. The representative IC50 value with a known inhibitor for each kinase was determined at the ATP bin nearest to the ATP Km app.
# PAK3 = PAK3 (Homo sapiens, UniProt O75914); assay: In vitro PAK inhibition assay (Z'-LYTE, SelectScreen), PAK3
# Experimental: as §1
# The 2×PAK3/Ser/Thr 20 mixture is prepared in 50 mM HEPES pH 7.5, 0.01% BRIJ-35, 10 mM MgCl2, 1 mM EGTA.
# as §2, §3, §4, §5, §6, §7, §8
# PAK1, sequence (Q13153 whole entry): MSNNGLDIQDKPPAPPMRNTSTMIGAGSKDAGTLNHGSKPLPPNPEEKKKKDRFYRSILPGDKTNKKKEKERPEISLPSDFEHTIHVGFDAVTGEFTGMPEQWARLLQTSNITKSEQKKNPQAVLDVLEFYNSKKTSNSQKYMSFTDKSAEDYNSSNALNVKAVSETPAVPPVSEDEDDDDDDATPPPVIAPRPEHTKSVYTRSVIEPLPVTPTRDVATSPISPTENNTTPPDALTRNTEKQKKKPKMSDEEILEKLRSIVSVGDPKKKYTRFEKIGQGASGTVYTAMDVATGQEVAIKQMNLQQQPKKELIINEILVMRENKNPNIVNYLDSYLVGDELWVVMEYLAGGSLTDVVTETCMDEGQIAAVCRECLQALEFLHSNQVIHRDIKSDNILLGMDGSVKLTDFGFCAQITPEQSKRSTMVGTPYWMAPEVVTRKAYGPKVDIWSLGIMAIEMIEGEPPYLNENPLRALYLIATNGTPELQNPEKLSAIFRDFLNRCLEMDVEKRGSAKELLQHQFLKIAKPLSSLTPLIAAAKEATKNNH
# PAK2 (PAK65), sequence (Q13177 whole entry): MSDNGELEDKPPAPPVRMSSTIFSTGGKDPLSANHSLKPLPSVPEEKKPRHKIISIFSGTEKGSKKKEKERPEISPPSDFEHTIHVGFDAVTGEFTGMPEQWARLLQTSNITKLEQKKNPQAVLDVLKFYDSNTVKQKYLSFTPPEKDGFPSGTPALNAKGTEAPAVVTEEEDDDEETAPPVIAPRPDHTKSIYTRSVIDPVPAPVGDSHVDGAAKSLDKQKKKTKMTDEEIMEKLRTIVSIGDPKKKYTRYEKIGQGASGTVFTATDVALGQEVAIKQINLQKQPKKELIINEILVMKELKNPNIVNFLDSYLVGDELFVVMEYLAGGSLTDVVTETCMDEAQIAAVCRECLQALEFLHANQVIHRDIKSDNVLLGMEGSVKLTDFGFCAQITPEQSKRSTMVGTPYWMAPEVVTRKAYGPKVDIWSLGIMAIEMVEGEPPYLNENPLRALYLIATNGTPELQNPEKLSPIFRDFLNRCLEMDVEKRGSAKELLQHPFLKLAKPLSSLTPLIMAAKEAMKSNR
# PAK4, sequence (O96013 whole entry): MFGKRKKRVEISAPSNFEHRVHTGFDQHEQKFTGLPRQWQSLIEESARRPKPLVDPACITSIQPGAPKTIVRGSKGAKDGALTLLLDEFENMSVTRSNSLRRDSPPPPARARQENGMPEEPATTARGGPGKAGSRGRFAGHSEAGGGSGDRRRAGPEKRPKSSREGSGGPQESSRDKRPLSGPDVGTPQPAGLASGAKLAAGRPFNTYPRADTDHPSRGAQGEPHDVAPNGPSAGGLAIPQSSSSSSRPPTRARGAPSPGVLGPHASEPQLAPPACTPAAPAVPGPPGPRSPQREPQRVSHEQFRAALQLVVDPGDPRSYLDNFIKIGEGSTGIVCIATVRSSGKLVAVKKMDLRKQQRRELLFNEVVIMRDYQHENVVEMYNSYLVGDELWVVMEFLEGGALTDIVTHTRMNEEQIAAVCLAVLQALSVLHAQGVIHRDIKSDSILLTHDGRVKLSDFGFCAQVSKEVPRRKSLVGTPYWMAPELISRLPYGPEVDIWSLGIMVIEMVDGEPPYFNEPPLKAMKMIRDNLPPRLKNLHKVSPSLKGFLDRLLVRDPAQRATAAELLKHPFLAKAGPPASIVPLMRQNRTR
# PAK3, sequence (O75914 1-544 isoform O75914-2): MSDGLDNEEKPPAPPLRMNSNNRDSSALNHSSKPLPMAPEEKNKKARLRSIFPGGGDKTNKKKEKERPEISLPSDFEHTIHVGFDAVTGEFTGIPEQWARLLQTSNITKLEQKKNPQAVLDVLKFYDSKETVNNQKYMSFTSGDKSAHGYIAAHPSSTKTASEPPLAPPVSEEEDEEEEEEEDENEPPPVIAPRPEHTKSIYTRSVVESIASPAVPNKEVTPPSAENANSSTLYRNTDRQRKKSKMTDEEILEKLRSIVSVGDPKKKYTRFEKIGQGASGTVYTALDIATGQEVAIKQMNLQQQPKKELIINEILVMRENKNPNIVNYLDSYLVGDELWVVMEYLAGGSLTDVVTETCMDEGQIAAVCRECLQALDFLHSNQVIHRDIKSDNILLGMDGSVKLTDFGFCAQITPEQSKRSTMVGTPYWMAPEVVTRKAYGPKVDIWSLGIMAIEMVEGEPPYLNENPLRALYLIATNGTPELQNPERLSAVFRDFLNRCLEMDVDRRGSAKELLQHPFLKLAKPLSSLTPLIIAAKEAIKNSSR
IC50 (PAK1),IC50 (PAK2 (PAK65)),IC50 (PAK4),IC50 (PAK3; read-out: PAK3 IC50),IC50 (PAK3; PAK3 IC50 (nM)),SMILES
< 50 nM,< 50 nM,> 5000 nM,< 50 nM,–,Cc1nccnc1-c1ccc(-c2cc3cnc(NC4CCOCC4)nc3n(Cc3ccccc3C(F)(F)F)c2=O)c(Cl)c1 [Example 21]
50 to 500 nM,500 to 5000 nM,> 5000 nM,50 to 500 nM,–,CCn1c(=O)c(-c2ccc(-c3cnccc3C)cc2Cl)cc2cnc(NC3CCOCC3)nc21 [Example 47]
50 to 500 nM,50 to 500 nM,> 5000 nM,50 to 500 nM,–,CCn1c(=O)c(-c2ccc(-c3cccnc3)cc2Cl)cc2cnc(NC3CCOCC3)nc21 [Example 44]
50 to 500 nM,50 to 500 nM,> 5000 nM,50 to 500 nM,–,Cc1cnc(-c2ccc(-c3cc4cnc(NC5CCOCC5)nc4n(Cc4ccccc4C(F)(F)F)c3=O)c(Cl)c2)s1 [Example 26]
50 to 500 nM,50 to 500 nM,> 5000 nM,50 to 500 nM,–,CCn1c(=O)c(-c2ccc(-c3cncc(C)n3)cc2Cl)cc2cnc(NC3CCOC(C)(C)C3)nc21 (stereo not drawn) [Example 31]
< 50 nM,< 50 nM,> 5000 nM,50 to 500 nM,–,CCn1c(=O)c(-c2ccc(-c3cncc(C)n3)cc2Cl)cc2cnc(N[C@@H]3CCOC3)nc21 [Example 28]
50 to 500 nM,50 to 500 nM,> 5000 nM,500 to 5000 nM,–,CCn1c(=O)c(-c2ccc(-c3nccnc3C)cc2Cl)cc2cnc(NC3CCNC3)nc21 (stereo not drawn) [Example 83]
50 to 500 nM,50 to 500 nM,> 5000 nM,> 5000 nM,–,CCn1c(=O)c(-c2ccc(-c3nccnc3C)cc2Cl)cc2cnc(NC3CCCN(C)C3)nc21 (stereo not drawn) [Example 81]
50 to 500 nM,< 50 nM,> 5000 nM,50 to 500 nM,–,CCn1c(=O)c(-c2ccc(-c3noc(C)n3)cc2Cl)cc2cnc(NCCC3CCNCC3)nc21 [Example 137]
< 50 nM,< 50 nM,> 5000 nM,< 50 nM,–,Cc1cncc(-c2ccc(-c3cc4cnc(N[C@H]5CCOC5)nc4n([C@H]4CC[C@H](N)CC4)c3=O)c(Cl)c2)n1 [Example 110]
< 50 nM,< 50 nM,500 to 5000 nM,< 50 nM,–,Cc1cncc(-c2ccc(-c3cc4cnc(NCC(C)C)nc4n([C@H]4CC[C@H](N)CC4)c3=O)c(Cl)c2)n1 [Example 115]
< 50 nM,< 50 nM,> 5000 nM,50 to 500 nM,–,Cc1cncc(-c2ccc(-c3cc4cnc(N[C@@H]5CCOC5)nc4n(CCCN(C)C)c3=O)c(Cl)c2)n1 [Example 101]
< 50 nM,< 50 nM,> 5000 nM,< 50 nM,–,Cc1nccnc1-c1ccc(-c2cc3cnc(NC4CC4)nc3n([C@H]3CC[C@H](N)CC3)c2=O)c(Cl)c1 [Example 119]
< 50 nM,< 50 nM,500 to 5000 nM,< 50 nM,–,CCNc1ncc2cc(-c3ccc(-c4cncc(C)n4)cc3Cl)c(=O)n([C@H]3CC[C@H](N)CC3)c2n1 [Example 117]
50 to 500 nM,50 to 500 nM,> 5000 nM,50 to 500 nM,–,Cc1cncc(-c2ccc(-c3cc4cnc(N[C@@H]5CCOC5)nc4n(C4CCNCC4)c3=O)c(Cl)c2)n1 [Example 105]
50 to 500 nM,50 to 500 nM,> 5000 nM,50 to 500 nM,–,CCn1c(=O)c(-c2ccc(-c3noc(C)n3)cc2Cl)cc2cnc(N[C@H]3CC[C@H](N)CC3)nc21 [Example 94]
50 to 500 nM,50 to 500 nM,> 5000 nM,500 to 5000 nM,–,Cc1cncc(-c2ccc(-c3cc4cnc(N[C@H]5CCOC5)nc4n(CCN(C)C)c3=O)c(Cl)c2)n1 [Example 103]
50 to 500 nM,50 to 500 nM,> 5000 nM,50 to 500 nM,–,CCn1c(=O)c(-c2ccc(-c3cncc(C)n3)cc2Cl)cc2cnc(NCCCC3CCN(C)CC3)nc21 [Example 68]
50 to 500 nM,50 to 500 nM,> 5000 nM,500 to 5000 nM,–,CCn1c(=O)c(-c2ccc(-c3cnccn3)cc2Cl)cc2cnc(N[C@@H]3CCOC3)nc21 [Example 60]

IC50 (PAK1),IC50 (PAK2 (PAK65)),IC50 (PAK4),IC50 (PAK3; read-out: PAK3 IC50),IC50 (PAK3; PAK3 IC50 (nM)),SMILES
< 50 nM,< 50 nM,> 5000 nM,50 to 500 nM,–,CCn1c(=O)c(-c2ccc(-c3cncc(C)n3)cc2Cl)cc2cnc(N[C@H]3CC[C@H](N)CC3)nc21 [Example 85]
50 to 500 nM,50 to 500 nM,> 5000 nM,50 to 500 nM,–,CCn1c(=O)c(-c2ccc(-c3nccnc3C)cc2Cl)cc2cnc(NC3CCOC3)nc21 (stereo not drawn) [Example 15]
50 to 500 nM,50 to 500 nM,> 5000 nM,500 to 5000 nM,–,CCn1c(=O)c(-c2ccc(-c3nccnc3C)cc2Cl)cc2cnc(NC3CCN(C(C)=O)C3)nc21 (stereo not drawn) [Example 19]
< 50 nM,< 50 nM,> 5000 nM,< 50 nM,–,CCn1c(=O)c(-c2ccc(-c3cncc(C)n3)cc2Cl)cc2cnc(NCCC3CCNCC3)nc21 [Example 135]
500 to 5000 nM,500 to 5000 nM,> 5000 nM,500 to 5000 nM,–,CCn1c(=O)c(-c2cc(C)c(-c3noc(C)n3)cc2Cl)cc2cnc(N[C@@H]3CCOC3)nc21 [Example 73]
< 50 nM,< 50 nM,500 to 5000 nM,< 50 nM,–,Cc1cncc(-c2ccc(-c3cc4cnc(NC5CCCC5)nc4n([C@H]4CC[C@H](N)CC4)c3=O)c(Cl)c2)n1 [Example 118]
50 to 500 nM,50 to 500 nM,> 5000 nM,500 to 5000 nM,–,CCn1c(=O)c(-c2ccc(-c3cncc(C)n3)cc2Cl)cc2cnc(NCCCOCCN)nc21 [Example 133]
50 to 500 nM,50 to 500 nM,> 5000 nM,50 to 500 nM,–,CCn1c(=O)c(-c2ccc(-c3cncc(C)n3)cc2Cl)cc2cnc(NCCOCCN)nc21 [Example 128]
50 to 500 nM,50 to 500 nM,> 5000 nM,50 to 500 nM,–,CCn1c(=O)c(-c2ccc(-c3nccnc3C)cc2Cl)cc2cnc(NC3CCOCC3)nc21 [Example 2]
< 50 nM,< 50 nM,> 5000 nM,50 to 500 nM,–,Cc1cncc(-c2ccc(-c3cc4cnc(N[C@@H]5CCOC5)nc4n(CCN)c3=O)c(Cl)c2)n1 [Example 99]
< 50 nM,< 50 nM,500 to 5000 nM,< 50 nM,–,Cc1cncc(-c2ccc(-c3cc4cnc(NCC5CC5)nc4n([C@H]4CC[C@H](N)CC4)c3=O)c(Cl)c2)n1 [Example 113]
50 to 500 nM,< 50 nM,> 5000 nM,50 to 500 nM,–,Cc1cncc(-c2ccc(-c3cc4cnc(NC5CCOCC5)nc4n(Cc4ccccc4)c3=O)c(Cl)c2)n1 [Example 34]
–,–,–,50 to 500 nM,–,CCn1c(=O)c(-c2cc(C)c(-c3noc(C)n3)cc2Cl)cc2cnc(N[C@@H]3CCOC3)nc21 [Example 92]
50 to 500 nM,< 50 nM,> 5000 nM,50 to 500 nM,–,Cc1cncc(-c2ccc(-c3cc4cnc(NC5CCOCC5)nc4n(Cc4ccccc4C(F)(F)F)c3=O)c(Cl)c2)n1 [Example 20]
50 to 500 nM,50 to 500 nM,> 5000 nM,50 to 500 nM,–,CCn1c(=O)c(-c2ccc(-c3nccnc3C)cc2Cl)cc2cnc(NC3CCSCC3)nc21 [Example 18]
50 to 500 nM,50 to 500 nM,> 5000 nM,50 to 500 nM,–,CCn1c(=O)c(-c2ccc(-c3ccnc(C)n3)cc2Cl)cc2cnc(NC3CCOCC3)nc21 [Example 8]
50 to 500 nM,50 to 500 nM,> 5000 nM,50 to 500 nM,–,CCn1c(=O)c(-c2ccc(-c3nccnc3C)cc2Cl)cc2cnc(NC3CCCOC3)nc21 (stereo not drawn) [Example 17]
500 to 5000 nM,500 to 5000 nM,> 5000 nM,500 to 5000 nM,–,CCn1c(=O)c(-c2ccc(-c3nccnc3C)cc2Cl)cc2cnc(NC3CCNCC3)nc21 [Example 79]
–,–,> 5000 nM,–,50 to 500 nM,CCn1c(=O)c(-c2ccc(-c3cncc(C)n3)cc2Cl)cc2cnc(NCCC3CCN(C)CC3)nc21 [Example 67]
